According to patent US20260042755A1, “GPR6 INVERSE AGONISTS” (MapLight Therapeutics, Inc., priority 2022, published 2026):

Experiments:
[1] = biological target: T1, GPR6 (Homo sapiens, UniProt P46095); test: GPR6 antagonist functional cAMP assay (LANCE Ultra cAMP TR-FRET, CHO cells stably expressing GPR6); assay type: cell-based
T1 construct: expressed in transfected cells; host or cells: CHO cells
Summary of the method: (§1)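 Read-out was TR-FRET cAMP signal at 665 nm after 1 h at room temperature, following 45 min compound exposure at 37 °C. Assay buffer contained 0.1% BSA and 150 μM Ro 20-1724. Antagonist IC50s were fitted with a 4-parameter logistic against DMSO and reference controls.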

[2] = biological target: T2, GPR3 (Homo sapiens, UniProt P46089); test: GPR3 antagonist functional cAMP assay (LANCE Ultra cAMP TR-FRET, CHO cells stably expressing GPR3); assay type: cell-based
T2 construct: expressed in transfected cells; host or cells: CHO cells
Summary of the method: as §1

T2 sequence (P46089 whole entry, species assumed): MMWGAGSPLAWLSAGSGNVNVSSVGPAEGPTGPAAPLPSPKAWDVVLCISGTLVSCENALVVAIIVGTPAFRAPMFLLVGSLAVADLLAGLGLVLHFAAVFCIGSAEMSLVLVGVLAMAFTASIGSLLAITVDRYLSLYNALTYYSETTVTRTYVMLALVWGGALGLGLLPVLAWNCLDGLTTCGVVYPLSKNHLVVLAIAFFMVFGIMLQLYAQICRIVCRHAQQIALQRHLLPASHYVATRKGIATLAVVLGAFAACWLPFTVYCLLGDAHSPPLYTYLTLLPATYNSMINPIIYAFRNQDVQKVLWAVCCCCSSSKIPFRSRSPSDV
T1 sequence (P46095 whole entry): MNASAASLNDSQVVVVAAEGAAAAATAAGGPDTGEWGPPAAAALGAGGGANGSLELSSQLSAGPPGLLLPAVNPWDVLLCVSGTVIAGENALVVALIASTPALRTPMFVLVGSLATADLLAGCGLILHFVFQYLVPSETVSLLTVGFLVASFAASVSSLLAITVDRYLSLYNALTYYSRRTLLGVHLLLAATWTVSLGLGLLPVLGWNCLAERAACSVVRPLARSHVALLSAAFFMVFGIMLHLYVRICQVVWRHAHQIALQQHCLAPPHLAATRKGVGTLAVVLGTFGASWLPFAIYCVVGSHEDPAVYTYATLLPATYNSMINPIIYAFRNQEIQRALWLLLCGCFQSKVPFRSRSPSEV

| IC50 ([1]; CHO cells stably expressing GPR6, cAMP assay) [nM] | IC50 ([2]; CHO cells stably expressing GPR3, cAMP assay) [nM] | IC50 ([1]; procedure of Example 24) [nM] | IC50 ([2]; procedure of Example 24) [nM] | Structure (SMILES) |
| --- | --- | --- | --- | --- |
| 100 to 1000 | 100 to 1000 |  |  | CC(=O)N1CCc2nc(N3CCN(Cc4ccc(F)cc4F)CC3)c(-c3ccc(F)c(N)n3)nc2C1 [Compound 609, 1-[3-(6-amino-5-fluoro-2-pyridyl)-2-{4-[(2,4-difluorophenyl)methyl]-1-piperazinyl}-5,6,7,8-tetrahydro-1,4,6-triaza-6-naphthyl]-1-ethanone] |
|  |  | < 100 | 1000 to 30000 | CC(=O)N1CCc2nc(N3CCN(Cc4ccc(Cl)cc4F)CC3)c(-c3ccc(F)c(N)n3)nc2C1 [Compound 610, 1-[3-(6-amino-5-fluoro-2-pyridyl)-2-{4-[(4-chloro-2-fluorophenyl)methyl]-1-piperazinyl}-5,6,7,8-tetrahydro-1,4,6-triaza-6-naphthyl]-1-ethanone] |
|  |  | < 100 | 1000 to 30000 | COC(=O)N1CCc2nc(N3CCC(Oc4ccc(F)cc4F)CC3)c(-c3ccc(F)c(N)n3)nc2C1 [Compound 611, 6-{2-[4-(2,4-difluorophenoxy)-1-piperidyl]-6-methoxycarbonyl-5,6,7,8-tetrahydro-1,4,6-triaza-3-naphthyl}-3-fluoro-2-pyridylamine] |
|  |  | 100 to 1000 | 1000 to 30000 | CC(C)(O)C(=O)c1cc2nc(N3CCC(Oc4ccc(F)cc4F)CC3)c(-c3cnn(C(F)F)c3)nc2cn1 [Compound 616, 1-{3-[1-(difluoromethyl)-4-pyrazolyl]-2-[4-(2,4-difluorophenoxy)-1-piperidyl]-1,4,6-triaza-7-naphthyl}-2-hydroxy-2-methyl-1-propanone] |
|  |  | 100 to 1000 | 1000 to 30000 | Cn1cc(-c2nc3cnc(C(C)(O)C(C)(C)O)cc3nc2N2CCN(Cc3ccc(F)cc3F)CC2)cn1 (stereo not shown) [Compound 617, 2-(2-{4-[(2,4-difluorophenyl)methyl]-1-piperazinyl}-3-(1-methyl-4-pyrazolyl)-1,4,6-triaza-7-naphthyl)-3-methyl-2,3-butanediol] |
|  |  | 100 to 1000 | 1000 to 30000 | CC(C)(O)C(=O)c1cc2nc(N3CCN(Cc4ccccc4F)CC3)c(-c3cnn(C(F)F)c3)nc2cn1 [Compound 618, 1-{3-[1-(difluoromethyl)-4-pyrazolyl]-2-{4-[(o-fluorophenyl)methyl]-1-piperazinyl}-1,4,6-triaza-7-naphthyl}-2-hydroxy-2-methyl-1-propanone] |
|  |  | 100 to 1000 | 1000 to 30000 | CC(C)(O)C(=O)c1cc2nc(N3CCN(Cc4ccc(F)cc4F)CC3)c(-c3cnn(C4CC4)c3)nc2cn1 [Compound 619, 1-[3-(1-cyclopropyl-4-pyrazolyl)-2-{4-[(2,4-difluorophenyl)methyl]-1-piperazinyl}-1,4,6-triaza-7-naphthyl]-2-hydroxy-2-methyl-1-propanone] |
|  |  | 100 to 1000 | 100 to 1000 | CC(C)(O)C(=O)c1cc2nc(-c3cnn(C(F)F)c3)c(N3CCN(Cc4ccc(F)cc4F)CC3)nc2cn1 [Compound 620, 1-{2-[1-(difluoromethyl)-4-pyrazolyl]-3-{4-[(2,4-difluorophenyl)methyl]-1-piperazinyl}-1,4,6-triaza-7-naphthyl}-2-hydroxy-2-methyl-1-propanone] |
|  |  | 100 to 1000 | 1000 to 30000 | CC(C)(O)C(=O)c1cc2nc(N3CCC(Oc4ccc(F)cc4F)CC3)c(-c3cnn(CF)c3)nc2cn1 [Compound 621, 1-{2-[4-(2,4-difluorophenoxy)-1-piperidyl]-3-[1-(fluoromethyl)-4-pyrazolyl]-1,4,6-triaza-7-naphthyl}-2-hydroxy-2-methyl-1-propanone] |
|  |  | 100 to 1000 | 1000 to 30000 | CC(C)(O)C(C)(O)c1cc2nc(N3CCN(Cc4ccccc4F)CC3)c(-c3cnn(CF)c3)nc2cn1 (stereo not shown) [Compound 622, 2-{3-[1-(fluoromethyl)-4-pyrazolyl]-2-{4-[(o-fluorophenyl)methyl]-1-piperazinyl}-1,4,6-triaza-7-naphthyl}-3-methyl-2,3-butanediol] |
|  |  | 100 to 1000 | 100 to 1000 | CC(=O)N1CCc2nc(N3CCC(=Cc4ccccc4F)CC3)c(-c3cnn(C)c3)nc2C1 [Compound 623, 1-(2-{4-[(o-fluorophenyl)methylene]-1-piperidyl}-3-(1-methyl-4-pyrazolyl)-5,6,7,8-tetrahydro-1,4,6-triaza-6-naphthyl)-1-ethanone] |
|  |  | 100 to 1000 | 1000 to 30000 | CCn1cc(-c2nc3cnc(C(=O)C(C)(C)O)cc3nc2N2CCN(Cc3ccc(F)cc3F)CC2)cn1 [Compound 624, 1-(2-{4-[(2,4-difluorophenyl)methyl]-1-piperazinyl}-3-(1-ethyl-4-pyrazolyl)-1,4,6-triaza-7-naphthyl)-2-hydroxy-2-methyl-1-propanone] |
|  |  | 100 to 1000 | 1000 to 30000 | CC(C)(O)C(=O)c1cc2nc(N3CCC(Oc4ccc(F)cc4F)CC3)c(-c3cnn(C4CC4)c3)nc2cn1 [Compound 625, 1-{3-(1-cyclopropyl-4-pyrazolyl)-2-[4-(2,4-difluorophenoxy)-1-piperidyl]-1,4,6-triaza-7-naphthyl}-2-hydroxy-2-methyl-1-propanone] |
|  |  | < 100 | 1000 to 30000 | C=CC(=O)N1CCc2nc(N3CCC(Oc4ccc(F)cc4F)CC3)c(-c3ccc(F)c(N)n3)nc2C1 [Compound 626, 1-{3-(6-amino-5-fluoro-2-pyridyl)-2-[4-(2,4-difluorophenoxy)-1-piperidyl]-5,6,7,8-tetrahydro-1,4,6-triaza-6-naphthyl}-2-propen-1-one] |
|  |  | 100 to 1000 | 1000 to 30000 | CC(C)S(=O)(=O)N1CCc2nc(N3CCC(Oc4ccc(F)cc4F)CC3)c(-c3ccc(F)c(N)n3)nc2C1 [Compound 627, 6-{2-[4-(2,4-difluorophenoxy)-1-piperidyl]-6-(isopropylsulfonyl)-5,6,7,8-tetrahydro-1,4,6-triaza-3-naphthyl}-3-fluoro-2-pyridylamine] |
|  |  | 100 to 1000 | 1000 to 30000 | COCC(=O)N1CCc2nc(N3CCC(Oc4ccc(F)cc4F)CC3)c(-c3ccc(F)c(N)n3)nc2C1 [Compound 628, 1-{3-(6-amino-5-fluoro-2-pyridyl)-2-[4-(2,4-difluorophenoxy)-1-piperidyl]-5,6,7,8-tetrahydro-1,4,6-triaza-6-naphthyl}-2-methoxy-1-ethanone] |
|  |  | < 100 | 1000 to 30000 | CN(C)C(=O)N1CCc2nc(N3CCC(Oc4ccc(F)cc4F)CC3)c(-c3ccc(F)c(N)n3)nc2C1 [Compound 629, 6-{6-(N,N-dimethylcarbamoyl)-2-[4-(2,4-difluorophenoxy)-1-piperidyl]-5,6,7,8-tetrahydro-1,4,6-triaza-3-naphthyl}-3-fluoro-2-pyridylamine] |
|  |  | 1000 to 30000 | ≥ 30000 | CC(=O)N1CCc2nc(N3CCN(C(=O)c4ccc(F)cc4F)CC3)c(-c3cnn(C)c3)nc2C1 [Compound 630, 1-{2-[4-(2,4-difluorobenzoyl)-1-piperazinyl]-3-(1-methyl-4-pyrazolyl)-5,6,7,8-tetrahydro-1,4,6-triaza-6-naphthyl}-1-ethanone] |
|  |  | 100 to 1000 | 1000 to 30000 | CCn1cc(-c2nc3cnc(C(C)(O)C(C)(C)O)cc3nc2N2CCC(Oc3ccc(F)cc3F)CC2)cn1 (stereo not shown) [Compound 631, 2-{2-[4-(2,4-difluorophenoxy)-1-piperidyl]-3-(1-ethyl-4-pyrazolyl)-1,4,6-triaza-7-naphthyl}-3-methyl-2,3-butanediol] |
|  |  | 100 to 1000 | 1000 to 30000 | CC(C)(O)C(C)(O)c1cc2nc(N3CCC(Oc4ccc(F)cc4F)CC3)c(-c3cnn(C4CC4)c3)nc2cn1 (stereo not shown) [Compound 632, 2-{3-(1-cyclopropyl-4-pyrazolyl)-2-[4-(2,4-difluorophenoxy)-1-piperidyl]-1,4,6-triaza-7-naphthyl}-3-methyl-2,3-butanediol] |
|  |  | < 100 | 1000 to 30000 | CC(C)(O)C(C)(O)c1cc2nc(-c3cnn(C(F)F)c3)c(N3CCN(Cc4ccc(F)cc4F)CC3)nc2cn1 (stereo not shown) [Compound 633, 2-{2-[1-(difluoromethyl)-4-pyrazolyl]-3-{4-[(2,4-difluorophenyl)methyl]-1-piperazinyl}-1,4,6-triaza-7-naphthyl}-3-methyl-2,3-butanediol] |
|  |  | 100 to 1000 | 1000 to 30000 | CC(C)(O)C(C)(O)c1cc2nc(N3CCN(Cc4ccccc4F)CC3)c(-c3cnn(C(F)F)c3)nc2cn1 (stereo not shown) [Compound 634, 2-{3-[1-(difluoromethyl)-4-pyrazolyl]-2-{4-[(o-fluorophenyl)methyl]-1-piperazinyl}-1,4,6-triaza-7-naphthyl}-3-methyl-2,3-butanediol] |
|  |  | 100 to 1000 | 1000 to 30000 | CC(C)(O)C(C)(O)c1cc2nc(N3CCC(Oc4ccc(F)cc4F)CC3)c(-c3cnn(C(F)F)c3)nc2cn1 (stereo not shown) [Compound 635, 2-{3-[1-(difluoromethyl)-4-pyrazolyl]-2-[4-(2,4-difluorophenoxy)-1-piperidyl]-1,4,6-triaza-7-naphthyl}-3-methyl-2,3-butanediol] |
|  |  | 100 to 1000 | 1000 to 30000 | CC(C)(O)C(C)(O)c1cc2nc(N3CCC(Oc4ccc(F)cc4F)CC3)c(-c3cnn(CF)c3)nc2cn1 (stereo not shown) [Compound 636, 2-{2-[4-(2,4-difluorophenoxy)-1-piperidyl]-3-[1-(fluoromethyl)-4-pyrazolyl]-1,4,6-triaza-7-naphthyl}-3-methyl-2,3-butanediol] |
|  |  | 100 to 1000 | 1000 to 30000 | CC(=O)N1CCc2nc(N3CCN(Cc4ccc(Cl)cc4Cl)CC3)c(-c3ccc(F)c(N)n3)nc2C1 [Compound 637, 1-[3-(6-amino-5-fluoro-2-pyridyl)-2-{4-[(2,4-dichlorophenyl)methyl]-1-piperazinyl}-5,6,7,8-tetrahydro-1,4,6-triaza-6-naphthyl]-1-ethanone] |
|  |  | < 100 | 1000 to 30000 | CC(=O)N1CCc2nc(N3CCC(C(=O)c4ccc(F)cc4F)CC3)c(-c3ccc(F)c(N)n3)nc2C1 [Compound 638, 1-{3-(6-amino-5-fluoro-2-pyridyl)-2-[4-(2,4-difluorobenzoyl)-1-piperidyl]-5,6,7,8-tetrahydro-1,4,6-triaza-6-naphthyl}-1-ethanone] |
